Where a name gives a salt, the structure may show the parent alone.
Columns and labels:
[1] = tested on: diabetic mice induced by streptozotocin; test: Animal test: blood glucose level in streptozotocin-induced diabetic mice, 10 days; assay type: in vivo; details: for capacity of lowering blood glucose, folacin-metformin compared with metformin hydrochloride (in words): diabetic mice, 10 days, 350 mg/kg vs 100 mg/kg body weight; for blood glucose level, After use: streptozotocin diabetic mice, day 10, folacin-metformin 350 mg/kg body weight, metformin hydrochloride 100 mg/kg body weight, mean of 6 mice
Procedure: (§1) The female mice were induced to diabetic mice by streptozotocin (body weight […]), 6 animals in one group. The data in the table below represented the average of the values of six mice. Normal healthy mice were used as control group 1, control group 2, and control group 3. Control group 1 was administered folacin-metformin (350 mg/kg body weight), control group 2 was administered metformin hydrochloride (100 mg/kg body weight), and control group 3 was administered normal saline. Diabetic mice were divided into three groups, each group was fed folacin-metformin (350 mg/kg body weight), metformin hydrochloride (100 mg/kg body weight) and normal saline, separately. The test lasted for 10 days, and the blood glucose levels and the homocysteine concentrations were detected for all the mice by the end of the test.
(§2) On day 10 of the test, test mice were anaesthetized by i.p. injection of 65 mg/kg body weight of sodium pentobarbital, then collected blood sample from the abdominal aorta. Blood glucose levels were determined by a standard protocol (Methods of Enzymatic Analysis, Vol. 3, 2nd ed. Verlag Chemie International, 1981, p1196-1201), and the homocysteine concentrations in the blood samples were determined using high performance liquid chromatograph according to the literature (Eur. J. Clin. Chem. Clin. Biochem. 1991, 29, 549-554).

normal healthy mice [2] = test: Animal test: homocysteine concentration in blood of normal healthy mice (control groups), 10 days; assay type: in vivo; details: metformin hydrochloride 100 mg/kg body weight
Procedure: as §1, §2

normal healthy mice [3] = test: Animal test: blood glucose level in normal healthy mice (control groups), 10 days; assay type: in vivo; details: for blood glucose level, After use: normal healthy mice, day 10, folacin-metformin 350 mg/kg body weight, metformin hydrochloride 100 mg/kg body weight, mean of 6 mice
Procedure: as §1, §2

[4] = tested on: diabetic mice induced by streptozotocin; test: Animal test: homocysteine concentration in blood of streptozotocin-induced diabetic mice, 10 days; assay type: in vivo; details: metformin hydrochloride 100 mg/kg body weight
Procedure: as §1, §2

[5] = after long-term use, recent clinical application; cited from earlier work

SMILES: CN(C)C(=N)N=C(N)N.Nc1nc2ncc(CNc3ccc(C(=O)N[C@@H](CCC(=O)O)C(=O)O)cc3)nc2c(=O)[nH]1 [folacin-metformin]
- capacity of lowering blood glucose, folacin-metformin compared with metformin hydrochloride (in words) [1]: no difference
- blood glucose level, After use [1]: 7.4 ± 1.7 mmol/L
- effect on the blood homocysteine concentration (in words) (normal healthy mice [2]; healthy mice, 10 days, folacin-metformin 350 mg/kg): slight lowering effect
- homocystein concentration, After use (normal healthy mice [2]; normal healthy mice, day 10, folacin-metformin 350 mg/kg body weight, mean of 6 mice): 9.3 ± 1.1 µmol/L
- effect on the blood glucose level (in words) (normal healthy mice [3]; healthy mice, 10 days, 350 mg/kg body weight): no effect
- blood glucose level, After use (normal healthy mice [3]): 7.2 ± 1.2 mmol/L
- increase of the homocysteine concentration while lowering the blood glucose (in words) ([4]; diabetic mice, 10 days, folacin-metformin 350 mg/kg): does not increase
- homocystein concentration, After use ([4]; streptozotocin diabetic mice, day 10, folacin-metformin 350 mg/kg body weight, mean of 6 mice): 8.9 ± 0.9 µmol/L

SMILES: CN(C)C(=N)N=C(N)N [metformin hydrochloride, reference compound]
- capacity of lowering blood glucose, folacin-metformin compared with metformin hydrochloride (in words) [1]: no difference
- blood glucose level, After use [1]: 7.6 ± 1.4 mmol/L
- blood glucose level, After use (normal healthy mice [3]): 7.4 ± 1.7 mmol/L
- homocystein concentration in the patient (in words) [5]: substantially increased

Reference: patent US8329710B2, “Metformin folate and preparation of the same” (Sino-Us Pficker Pharmaceuticals Co., priority 2006, dated 2012)
